Laboratory results from US20110003688A1, “Pesticidal Compound Mixtures” (Bayer CropScience AG, priority 2007, published 2011).

Key:
Type in all cases: in vivo
Conditions in all cases: mortality
[1] = system: green peach aphid (Myzus persicae); experiment: Myzus persicae test (sprayed infested cabbage leaves)
Experimental: (§1) To produce a suitable preparation of active compound, 1 part by weight of active compound is mixed with the stated amount of solvent and emulsifier, and the concentrate is diluted with emulsifier-containing water to the desired concentration.
Cabbage leaves (Brassica oleracea) which are heavily infested by the green peach aphid (Myzus persicae) are treated by being sprayed with the preparation of the active compound at the desired concentration.
(§2) After the specified period of time, the mortality in % is determined. 100% means that all the aphids have been killed; 0% means that none of the aphids have been killed.

[2] = system: larvae of the fall army worm (Spodoptera frugiperda); experiment: Spodoptera frugiperda test (sprayed cabbage leaves infested with larvae)
Experimental: as §1
Cabbage leaves (Brassica oleracea) are treated by being sprayed with the preparation of the active compound at the desired concentration and are infested with larvae of the fall army worm (Spodoptera frugiperda) as long as the leaves are still moist.
(§3) After the specified period of time, the mortality in % is determined. 100% means that all the caterpillars have been killed; 0% means that none of the caterpillars have been killed.

[3] = system: larvae of the beet army worm (Spodoptera exigua); experiment: Spodoptera exigua test (sprayed cabbage leaves infested with larvae)
Experimental: as §1
Cabbage leaves (Brassica oleracea) are treated by being sprayed with the preparation of the active compound at the desired concentration and are infested with larvae of the beet army worm (Spodoptera exigua) as long as the leaves are still moist.
as §3

[4] = system: cotton aphid (Aphis gossypii); experiment: Aphis gossypii test (sprayed infested cotton leaves)
Experimental: as §1
Cotton leaves (Gossypium hirsutum) which are heavily infested by the cotton aphid (Aphis gossypii) are treated by being sprayed with the preparation of the active compound at the desired concentration.
as §2

Compound: CC1(C)[C@H](C(=O)O[C@H](C#N)c2cccc(Oc3ccccc3)c2)[C@@H]1/C=C(\Cl)C(F)(F)F [L-Cyhalothrin, lambda-cyhalothrin]
- Efficacy in % after 6 days ([1]; 0.8 ppm): 45%

Compound: CC1(C)[C@H](C(=O)O[C@H](C#N)c2cccc(Oc3ccccc3)c2)[C@@H]1C=C(Br)Br [Deltamethrin, deltamethrin]
- Efficacy in % after 1 day ([1]; 0.8 ppm): 50%
- Efficacy in % after 4 days ([2]; 0.8 ppm): 70%
- Efficacy in % after 4 days ([3]; 0.16 ppm): 0%

Compound: CC[S+]([O-])c1c(C#N)nn(-c2c(Cl)cc(C(F)(F)F)cc2Cl)c1N (centres unmarked) [Ethiprole, ethiprole]
- Efficacy in % after 1 day ([1]; 4 ppm): 0%
- Efficacy in % after 6 days ([1]; 4 ppm): 0%
- Efficacy in % after 4 days ([2]; 4 ppm): 40%
- Efficacy in % after 1 day ([4]; 4 ppm): 30%
- Efficacy in % after 4 days ([3]; 0.8 ppm): 0%

Compound: CC1(C)C(C=C(Cl)Cl)C1C(=O)OC(C#N)c1ccc(F)c(Oc2ccccc2)c1 (centres unmarked) [Cyfluthrin, cyfluthrin]
- Efficacy in % after 1 day ([4]; 0.8 ppm): 25%

Compound: CC1(C)C(C=C(Cl)Cl)C1C(=O)OC(C#N)c1ccc(F)c(Oc2ccccc2)c1 (stereo not drawn) [β-Cyfluthrin, beta-cyfluthrin]
- Efficacy in % after 6 days ([1]; 0.8 ppm): 75%
